# Experimental data from paper PMC11831592, “Repurposing Linezolid in Conjunction with Histone Deacetylase Inhibitor Access in the Realm of Glioblastoma Therapies” (Journal of Medicinal Chemistry, 2025).
# Legend:
# [1] = Pharmacokinetic study in Sprague-Dawley rats; format: in vivo; conditions: male, plasma, rat, 10 mg/kg intravenous
# Description: The pharmacokinetic study protocol of compound 1 was approved by the IACUC of TMU (LAC-2022-0452), in compliance with National Research Council’s Guide for the Care and Use of Laboratory Animal. 8 Week-old male Sprague–Dawley rats were provided by BioLASCO (Taipei, Taiwan). Each rat (n = 3) was intravenously administered with a single dosage of 10 mg/kg A089 through the jugular vein. Blood samples were collected from the jugular vein at predetermined time points: 0.03, 0.08, 0.25, 0.5, 1, 2, 4, 6, 8, 12, and 24 h postadministration. The blood samples were centrifuged at 4 °C to obtain the plasma samples. For protein precipitation, an aliquot of acetonitrile was added to the plasma, followed by centrifugation and filtration using a 0.22 μm filter. The filtrate was then analyzed by ultraperformance liquid chromatography–tandem mass spectrometry (UPLC–MS/MS, TQ-XS, Waters Corp., Manchester, UK). Pharmacokinetic parameters were calculated by using a noncompartmental analysis with Phoenix WinNonlin software (Certara, Princeton, NJ, USA).
# [2] = tested on: PT#3; assay: CCK8 cell proliferation assay, PT#3; format: cell-based; conditions: Homo sapiens; PT#3, CCK8, 72 h
# Description: Cell viability and drug cytotoxicity were determined by a CCK-8 kit (Cell Counting Kit-8, CK04-13, MD, USA) (CCK8, C0005, Target Molecule Corp., MA, USA) reagent. Cells were seeded 2 × 10^3 per well in the 96-well plate for 24 h, followed by treating at different concentrations of compounds for 72 h. Before the experiment, CCK8 was 10-fold diluted with the culture medium and then incubated with cells for 30 min. Finally, the OD was 450 nm absorbance and calculated for cell viability.
smiles,measurement,setting,value
"O=C(/C=C/c1ccc(CNC[C@H]2CN(c3ccc(N4CCOCC4)c(F)c3)C(=O)O2)cc1)NO [compound 1, (S,E)-3-(4-((((3-(3-Fluoro-4-morpholinophenyl)-2-oxooxazolidin-5-yl)methyl)ami-no)methyl)phenyl)-N-hydroxyacrylamide]",AUC(0-inf) at 24 h,[1],2280 ± 760 ng·h/mL
same,AUC(0-t) at 24 h,[1],2010 ± 530 ng·h/mL
same,C0 at 24 h,[1],12300 ± 8130 ng/mL
same,MRT inf at 24 h,[1],7.91 ± 3.11 h
same,Vd at 24 h,[1],76.2 ± 12.3 L/kg
same,clearance at 24 h,[1],78 mL/min/kg
same,half-life at 24 h,[1],12 ± 4.42 h
same,IC50,[2],10.3 ± 0.52 µM
